From paper PMC2785710 (Bioorganic & medicinal chemistry letters, 2009) come the findings set out here.

A short description of this data set: in vitro metabolic stability in pooled mouse liver microsomes. The data set is classed as in vitro ADME. The conditions noted are these: for half-life: t1/2, mouse liver microsomes.

The compound `O=C(Nc1ccccc1Cl)c1cnc2ccc(C3CCNCC3)cn12.O=C(O)C(=O)O` [Compound 32] yielded a half-life of 348 min.
In turn, `O=C(Nc1ccccc1Cl)c1cnn2ccc(-c3ccccc3)cc12` [Compound 54] came in with a microsomal CLint of 51 ± 2.1 µL/min/mg and a half-life of 27 min.
On to `O=C(Nc1ccccc1Cl)c1cnn2ccc(N3CCCCC3)cc12` [Compound 58], for which the microsomal CLint was determined as 167 ± 4.2 µL/min/mg and the half-life came to 8.3 min.
Take `O=C(Nc1ccccc1Cl)c1cnc2ccccn12` [Compound 69]: the microsomal CLint is 361 ± 64 µL/min/mg and the half-life was determined as 3.8 min.
On the same counts, the results for `O=C(Nc1ccccc1Cl)c1cnc2ccc(-c3ccccc3)cn12` [Compound 70] are 26 ± 0.8 µL/min/mg and 53 min.
`O=C(Nc1ccccc1Cl)c1cnc2ccc(N3CCCCC3)cn12` [Compound 71]: the intrinsic clearance (microsomal CLint) turned out to be 71 ± 2 µL/min/mg and the half-life came to 20 min.
